# Source: US20060183733A1, “Treating microvasculature diseases with acetyl cholinesterase inhibitors” (priority 2005, published 2006)
# Tested on: patients with diabetic polyneuropathy
# Format: in vivo, human
# Settings: drug stopped after initial improvement
# Excerpt: The symptoms of motor and sensory loss of diabetic polyneuropathy are ameliorated by acetylcholinesterase inhibitions by increasing concentration of acetylcholine, the principle neurotransmitter of the parasympathetic nervous system. By augmenting the trophic input of nerves of parasympathic nervous system; pain and dyserethesia are diminished and weakness/atrophy of muscles are diminished. The clinical observation in non-Alzheimer's patients is an improvement in motor and sensory function following treatment with effective doses of an acetylcholinesterase inhibitor. Improved blood flow within the microvascular circulation supplying the vasovasorum of the nerves produces the beneficial effect. By restoring blood flow to the vasovasorum of the nerves ischemic pain is relieved and normal function of the nerve is allowed to occur. The process of vasodilatation of the microvascular circulation is mediated through both neuronal and non-neuronal acetylcholine receptors stimulation by acetylcholine. Enhancement in acetylcholine levels is effected through treatment with acetylcholinesterase inhibitors.
# The physiologic shift favoring vasoconstriction that is associated with diabetes is reversed following administration of an acetylcholinesterase inhibitor allowing perfusion of the microvasculature, restoring blood flow to ischemic motor and sensory nerves damaged by the effects of diabetes.
smiles,measurement,value
"COc1cc2c(cc1OC)C(=O)C(CC1CCN(Cc3ccccc3)CC1)C2 (stereo not shown) [donepizil, 1-benzyl-4->(5,6-dimethoxy-1-indanon)-2-yl methylpiperidine]",course after the drug was withdrawn or lapsed,progressive decline in their ability and strength over the next 7-10 days
